The source of these data is patent US7835013B2, “Interferometric detection system and method” (Vanderbilt University, priority 2007, dated 2010).

What is called Kd is a measure of binding affinity in units of concentration.

Read-outs that look alike come from different tables or passages of the source.

One experiment concerns the target Calmodulin (Homo sapiens, UniProt P0DP23). The following applies: read-out: published Kd Calmodulin-calcium ion; cited from earlier work.
The next experiment deals with T1, Calmodulin (CaM) (Homo sapiens, UniProt P0DP23).
T1 construct: purchased Sigma, St. Louis, Mo
Put plainly: BSI stop-flow label-free homogeneous binding to Calmodulin. The following applies: for Kd: 5 μM CaM, 12.5-100 μM Ca^2+, pH 7.5, 25° C.

For `[Ca+2]` [Ca^2+], the Kd on Calmodulin is 1 to 10 µM; on Calmodulin (CaM) (read-out: Kd CaM-Ca^2+ from kinetic analysis (single exponential, least squares)), 3.36 µM; on Calmodulin (CaM) (read-out: Kd CaM-Ca^2+ from steady-state values, Prism software) it was 17.8 µM. For the same compound, the “control: change in signal above that observed in the absence of excess EGTA” value at Calmodulin (CaM) (5 μM CaM and 100 μM Ca^2+, both with excess EGTA (400 μM)) was under 3%.
